Holding throughout (type): biochemical
The test system of experiment [1] is primers with 3′ transversion mismatches. In words: Mismatch extension PCR assay. The settings on record: G•A, C•C, G•G mismatched primers. How it is done: (§1) A PCR assay was used to screen and rank clones. Briefly, clones were normalized for activity in PCR with matched primers 3, 4 and activity with mismatched primers 1 and 2 (1 μM each) determined at minimal cycle number (15-25 cycles). Extension capability for different mismatches was determined by the same assay using mismatch primers 2 (C•C mismatch), 5 (A•A mismatch), 6 (G•G mismatch), 7 (G•A mismatch) with matched primer 3 or primer 1 (A•G mismatch) with matched primer 4. Incorporation of unnatural substrates in 50 cycle PCR was carried out using standard conditions and 50 μM […] dNTPs (Promega) or 50 μM FITC-12-dATP (Perkin-Elmer), Rhodamine-5-dUTP (Perkin-Elmer) or Biotin-16-dUTP (Roche) with equivalent amounts of the other 3 dNTPs (all 50 μM). Long PCR was carried out using a two-step cycling protocol as described (22) 94° C. for 2 minutes, followed by 20 cycles of (94° C. 15 sec, 68° C. 30 min) using 5 ng of phage λ DNA (New England Biolabs) template and either primers 9, 10, 11 with primer 12 or primer 13 with primers 10, 14.

Experiment [2] relates to undamaged template. In words: Translesion replication assay, control. The settings on record: gel-extension assay, 60° C. How it is done: (§2) Template primers 22 (undamaged) or 23 (containing a synthetic abasic site) were synthesized by Lofstrand Laboratories (Gaithersburg, Md.). Template primer 24 (containing a single cis-syn thymine dimer), was synthesized as described (34). Primer 25 was ^32P-labeled and annealed to one of the three templates 22, 23, 24 (at a primer template ratio of molar 1:1.5) and extended in 40 mM Tris.HCl at pH 8.0, 5 mM MgCl2, 100 μM of each dNTP, 10 mM DTT, 250 μg/ml BSA, 2.5% glycerol, 10 nM primer-template DNA and 0.1 Unit of polymerase at 60° C. for various times.

Experiment [3] deals with template containing a cis-syn cyclobutane thymine-thymine dimer (CPD). In words: Translesion replication assay (primer extension), CPD. The settings on record: gel-extension assay, 60° C. How it is done:
as §2
(§3) Primer extension assays were essentially as described in (Ghadessy et al., 2004). Briefly, undamaged oligonucleotides and a 51mer containing a synthetic abasic site were synthesized by Lofstrand Laboratories (Gaithersburg, Md.) using standard techniques and were gel purified prior to use. A 20mer primer (LES—20 P) with the sequence 5′-[…]-3′ (SEQ ID NO: 99) was 5′-labeled with [^32P]ATP (5000 Ci/mmole; 1 Ci=37 GBq) (Pharmacia) using T4 polynucleotide kinase (Invitrogen, Carlsbad Calif.). Radiolabeled primer-template DNAs were prepared by annealing the 5′[^32P] labeled 20mer primer to one of the two following 51mer templates (at a primer template ratio of molar 1:1.5). 1) undamaged DNA (UNDT51T); 5′-AGCTACCATGCCTGCACGAATTCGGCATCCGTCGCGACCACGGTCGCAGCG-3′ (SEQ ID NO: 100); 2) an oligo (LABA51T) containing a synthetic abasic site (indicated as an X in bold font); 5′-AGCTACCATGCCTGCACGACA XCG GCATCCGTCGCGACCACGGTCGCAGCG-3′ (SEQ ID NO: 101). Standard replication reactions of 10 contained 40 mM Tris.HCl at pH 8.0, 5 mM MgCl2, 100 μM of each ultrapure dNTP (Amersham Pharmacia Biotech, NJ), 10 mM DTT, 250 μg/ml BSA, 2.5% glycerol, 10 nM 5′[32P] primer-template DNA and 0.1 Unit of polymerase. After incubation at 60° C. for various times reactions were terminated by the addition of 10 μl of 95% formamide/10 mM EDTA and the samples heated to 100° C. for 5 min. Reaction mixtures (5 μl) were subjected to 20% polyacrylamide/7 M Urea gel electrophoresis and replication products visualized by PhosphorImager analysis.

Experiment [4] can be described thus: PCR with dATP replaced by FITC-12-dATP. The settings on record: 50 cycle PCR, dATP completely replaced. How it is done:
as §1

The test system of experiment [5] is template containing an abasic site. In words: Translesion replication assay (primer extension), abasic site. The settings on record: gel-extension assay, 60° C. How it is done: as §2, §3
The nature of experiment [6]: PCR with Biotin-16-dUTP. The settings on record: 50 cycle PCR, complete replacement. Here is the method: as §1

“Also recorded” adds a separate entry of the source.

As for “wtTaq: Thermus aquaticus (Taq) wild type DNA polymerase [reference compound]”, the “extension of 3′ transversion mismatches in PCR” value in experiment [1] was “unable to extend”. In experiment [2], the “primer extension on undamaged template” value was “efficiently and rapidly extended primers to the end of the template”. Also, the “CPD bypass in primer extension” value in experiment [3] is “only able to insert a base opposite the 3′T of the dimer after prolonged reaction conditions”. The “PCR amplification with FITC-12-dATP” value in experiment [4] is recorded as “unable to generate any amplification products”. Moreover, the “abasic site bypass in primer extension” value in experiment [5] was “further extension is largely abolished; also recorded: further extension was negligible”. In addition, the “PCR amplification with Biotin-16-dUTP” value in experiment [6] was “unable to generate any amplification products”.

B1: M1: Taq mutant G84A, D144G, K314R, E520G, F598L, A608V, E742G; SEQ ID NO: 1 (protein)
chain: MRGMLPLFEPKGRVLLVDGHHLAYRTFHALKGLTTSRGEPVQAVYGFAKSLLKALKEDGDAVIVVFDAKAPSFRHEAYGGYKAARAPTPEDFPRQLALIKELVDLLGLARLEVPGYEADDVLASLAKKAEKEGYEVRILTADKGLYQLLSDRIHVLHPEGYLITPAWLWEKYGLRPDQWADYRALTGDESDNLPGVKGIGEKTARKLLEEWGSLEALLKNLDRLKPAIREKILAHMDDLKLSWDLAKVRTDLPLEVDFAKRREPDRERLRAFLERLEFGSLLHEFGLLESPKALEEAPWPPPEGAFVGFVLSRREPMWADLLALAAAAGGRVHRAPEPYKALRDLKEARGLLAKDLSVLALREGLGLPPGDDPMLLAYLLDPSNTTPEGVARRYGGEWTEEAGERAALSERLFANLWGRLEGEERLLWLYREVERPLSAVLAHMEATGVRLDVAYLRALSLEVAEEIARLEAEVFRLAGHPFNLNSRDQLERVLFDELGLPAIGKTEKTGKRSTSAAVLGALREAHPIVEKILQYRELTKLKSTYIDPLPDLIHPRTGRLHTRFNQTATATGRLSSSDPNLQNIPVRTPLGQRIRRAFIAEEGWLLVVLDYSQIELRVLAHLSGDENLIRVFQEGRDIHTETASWMFGVPREAVDPLMRRAAKTINFGVLYGMSAHRLSQELAIPYEEAQAFIERYFQSFPKVRAWIEKTLEEGRRRGYVETLFGRRRYVPDLEARVKSVRGAAERMAFNMPVQGTAADLMKLAMVKLFPRLEEMGARMLLQVHDELVLEAPKERAEAVARLAKEVMEGVYPLAVPLEVEVGIGEDWLSAKE
modifications: Mutant Thermus aquaticus DNA polymerase
As for B1, the “extension of 3′ transversion mismatches in PCR” value in experiment [1] is “greatly increased ability to extend; also recorded: generate amplification products”. Further, in experiment [2], the “primer extension on undamaged template” value is “efficiently and rapidly extended primers to the end of the template”. The “CPD bypass in primer extension” value in experiment [3] is listed as “able to readily extend all of the primer to the 3′T of the dimer”. Further, the “size of amplification product fully labelled with FITC-12-dATP” value in experiment [4] was 0.4 kb. In addition, the “abasic site bypass in primer extension” value in experiment [5] was “able to extend past the lesion and to the end of the template; also recorded: capable of both insertion opposite the abasic site and lesion bypass”. Moreover, in experiment [6], the “size of amplification products fully labelled with Biotin-16-dUTP” value was determined as 2.7 kb.

The values above are taken from patent US9096835B2, “DNA polymerase” (Medical Research Council, priority 2003, dated 2015).
